{"source": "paper PMC9332833", "about": "(Cancers, 2022)", "key": {"K562-MDR1 cells": {"system": "K562-MDR1 cells", "assay": "Annexin V-FITC/PI apoptosis measurement, K562-MDR1", "type": "cell-based, human", "conditions": "5 µM, 24 h", "procedure": "Cells were seeded in 6-well plates (K562 or K562-MDR1) or in 24-well plates (CD34^+ cells). After 24 h, BK124.1 or DMSO was added. After a further 24 h, cells were stained using the Annexin V-FITC kit for the detection of apoptosis (BD, Franklin Lakes, NJ, USA) and immediately analyzed on a BD FACSCalibur using CellQuest software (BD, Franklin Lakes, NJ, USA). […]\nincubated overnight at 37 °C and analyzed using an iMark Microp late absorbance reader (Bio-Rad, Hercules, CA, USA). Results were calculated relative to control cells treated with DMSO only.\n[…] CD34+ cells were plated at a concentration of 2.5 × 10^5 cells/mL in a 24-well plate. […] A f t e r a further 24 hours, cells were harvested and stained according to the manufacturer's protocol using the Annexin V-FITC kit for the detection of apoptosis (BD, Franklin Lakes, NJ, USA). Stained cells were immediately analyzed on a BD FACSCalibur using CellQuest softwa re (BD, Franklin Lakes, NJ, USA).\nCells were seeded at a concentration of 1-2 × 10^5 cells/mL in a 6-well plate. After 24 hours of pre-incubation, BK124.1 in DMSO was added to the cells (vDMSO/vmedium), and incubated for 24 or 48 hours.\nAfter incubation, cells were washed twice with ice-cold PBS (Mg2+ and Ca2+-free), resuspended in ice-cold 70% ethanol, and placed at -20 °C for 24 hours. […]\nFlow cytometry analysis of CD243 (P-glycoprotein) […]"}, "[1]": {"assay": "Body and organ weights in K562 xenograft mice", "conditions": "for Brain weight / Heart weight / Kidneys weight / Liver weight / Lung weight / Splean weight: mean ± SD, N=4", "method": "Eight-week-old female NOD.Cg-Prkdcscid Il2rgtm1Wjl/SzJ NSG mice (Jackson Laboratory, Bar Harbor, ME, USA) were injected subcutaneously into the dorsal fold with 1 × 10^6 K562 cells of the human chronic myeloid leukemia (CML) line in a final volume of 100 µL (0.5% of the mouse weight). On day 3 after cell administration, mice were randomly assigned to each group, and on days 4–17 of the experiment, the selected tested compounds and control solutions were administered intraperitoneally or orally. During the experiment, subcutaneous tumors and body weight were measured daily. Tumor growth during the experiment was measured with an electronic display caliper. The theoretical tumor volume [mm], was calculated according to the formula (a^2 × b) * 0.5, where a is the shorter tumor axis [mm] and b is the longer tumor axis [mm]. On day 26, the experiment was terminated: blood was collected and analyzed for cellular morphology and standard biochemistry metabolites. Tumors were weighed.\nControl and treated mice were grouped according to the tested compounds and the scheme of their administrations (doses, administration frequencies, routes of administration) in the CML xenogeneic model obtained by subcutaneous transplantation of 1 × 10^6 cells of the human CML blast line K562 into mice NOD.Cg-Prkdcscid Il2rgtm1Wjl/SzJ (NSG).\nHydroxyurea K562 500 mg/kg, IP Aqua pro 1 x daily 8"}, "[2]": {"system": "CD34+/CD38- leukemia stem cells from CML patients", "assay": "Annexin V-FITC/PI apoptosis in CD34+/CD38- subpopulation", "type": "cell-based, human", "conditions": "2.5 or 5 µM, within 24 h, 3 patients; dose dependent", "procedure": "Pre-cultured cells were treated with BK124.1 or DMSO for 24 h. For purity analysis, cells were stained with anti-human CD34-APC antibody, anti-human CD38-PE (Biolegend, San Diego, CA, USA), and propidium iodide according to the manufacturers’ protocols. For apoptosis analysis, cells were additionally stained with Annexin V-FITC kit (BD, Franklin Lakes, NJ, USA) according to the manufacturer’s protocol. Appropriate isotype controls were included. Stained cells were immediately analyzed on a BD LSRFortessa flow cytometer with FlowJo software (BD, Franklin Lakes, NJ, USA), after exclusion of doublets. Purity was analyzed on live cells only, and apoptosis separately for each population of cells (CD34^+/CD38^+ or CD34^+/CD38^−).\n[…] Next, we isolated CD34+ cells (EasySep™ Human CD34 Positive Selection Kit II, StemCell Technologies, Vancouver, Canada), counted them and assessed viability with Muse Cell Analyzer (Merck Millipore, Burlington, MA, USA). […] The purity of the live CD34+ fraction was assessed by flow cytometry with anti-human CD34-APC antibody, compared with an appropriate isotype control (Biolegend, San Diego, CA, USA), and propidium iodide (Sigma-Aldrich, St. Louis, MO, USA). […]\n[…] In both cases stained cells were immediately analyzed on a BD LSRFortessa flow cytometer and analyzed with FlowJo software (BD, Franklin Lakes, NJ, USA). […]"}}, "data": [{"compound": "CCC12C(=O)C(CC)(C(c3ccccc3)=C1c1ccccc1)C1C(=O)N(CC(O)CNC(C)C)C(=O)C12", "note": "(stereo not shown) [BK124.1, 4-[2-hydroxy-3-(propan-2-ylamino)propyl]-1,7-diethyl-8,9-diphenyl-4-azatricyclo [5.2.1.02,6]dec-8-ene-3,5,10-trione]", "values": [{"measurement": "Apoptosis", "setting": "K562-MDR1 cells", "result": 30.1, "unit": "%"}, {"measurement": "Brain weight", "setting": "[1]; 20 mg/kg IP daily 14 days", "result": "0.47 ± 0.02", "unit": "g"}, {"measurement": "Heart weight", "setting": "[1]; 20 mg/kg IP daily 14 days", "result": "0.10 ± 0.00", "unit": "g"}, {"measurement": "Kidneys weight", "setting": "[1]; 20 mg/kg IP daily 14 days", "result": "0.26 ± 0.03", "unit": "g"}, {"measurement": "Liver weight", "setting": "[1]; 20 mg/kg IP daily 14 days", "result": "1.09 ± 0.10", "unit": "g"}, {"measurement": "Lung weight", "setting": "[1]; 20 mg/kg IP daily 14 days", "result": "0.24 ± 0.10", "unit": "g"}, {"measurement": "Splean weight", "setting": "[1]; 20 mg/kg IP daily 14 days", "result": "0.03 ± 0.02", "unit": "g"}, {"measurement": "Brain weight", "setting": "[1]; 30 mg/kg IP daily 14 days", "result": "0.47 ± 0.01", "unit": "g"}, {"measurement": "Heart weight", "setting": "[1]; 30 mg/kg IP daily 14 days", "result": "0.10 ± 0.02", "unit": "g"}, {"measurement": "Kidneys weight", "setting": "[1]; 30 mg/kg IP daily 14 days", "result": "0.28 ± 0.02", "unit": "g"}, {"measurement": "Liver weight", "setting": "[1]; 30 mg/kg IP daily 14 days", "result": "1.27 ± 0.11", "unit": "g"}, {"measurement": "Lung weight", "setting": "[1]; 30 mg/kg IP daily 14 days", "result": "0.34 ± 0.02", "unit": "g"}, {"measurement": "Splean weight", "setting": "[1]; 30 mg/kg IP daily 14 days", "result": "0.03 ± 0.01", "unit": "g"}, {"measurement": "Morphology or weight of internal organs (liver, spleen, kidneys, lungs, heart) versus untreated controls", "setting": "[1]; doses as in Table S3", "result": "no changes"}, {"measurement": "Total body weight course", "setting": "[1]; doses as in Table S3, control mice gained mass in the last 5 days", "result": "No such increase occurred"}, {"measurement": "Apoptosis in CD34+/CD38- leukemia stem cells", "setting": "[2]", "result": "induced apoptosis"}]}]}
